The record followed here is ChEMBL document CHEMBL5136991, “Dual-target inhibitors of poly (ADP-ribose) polymerase-1 for cancer therapy: Advances, challenges, and opportunities” (Eur J Med Chem, 2022).

A short description of data set [1]: Inhibition of PARP (unknown origin). Also on record: species or system Homo sapiens.
The next data set deals with MCF7. The experiment in a line: Antiproliferative activity against BRCA proficient human MCF7 cells assessed as inhibition of cell growth incubated for 48 hrs by MTT assay. The format is functional, cell-based. The conditions noted are these: MCF7, 48 h.
In a further data set the test system is HCC1937. In words: Antiproliferative activity against BRCA deficient human HCC1937 cells assessed as inhibition of cell growth incubated for 48 hrs by MTT assay. The conditions noted are these: HCC1937, 48 h. The class given is functional, cell-based. On the technique in general: Tetrazolium assays rely on reduction of a dye to a coloured formazan, in cell work by metabolically active cells.

Data set [2] has as its target T1, Bromodomain-containing protein 4 (Homo sapiens, UniProt O60885). The experiment in a line: Inhibition of BRD4 (unknown origin) at […] relative to control.
Data set [3] deals with T2, Poly [ADP-ribose] polymerase 1 (Homo sapiens, UniProt P09874). The experiment in a line: Inhibition of PARP1 (unknown origin) at […] relative to control.
T2 sequence (P09874 whole entry): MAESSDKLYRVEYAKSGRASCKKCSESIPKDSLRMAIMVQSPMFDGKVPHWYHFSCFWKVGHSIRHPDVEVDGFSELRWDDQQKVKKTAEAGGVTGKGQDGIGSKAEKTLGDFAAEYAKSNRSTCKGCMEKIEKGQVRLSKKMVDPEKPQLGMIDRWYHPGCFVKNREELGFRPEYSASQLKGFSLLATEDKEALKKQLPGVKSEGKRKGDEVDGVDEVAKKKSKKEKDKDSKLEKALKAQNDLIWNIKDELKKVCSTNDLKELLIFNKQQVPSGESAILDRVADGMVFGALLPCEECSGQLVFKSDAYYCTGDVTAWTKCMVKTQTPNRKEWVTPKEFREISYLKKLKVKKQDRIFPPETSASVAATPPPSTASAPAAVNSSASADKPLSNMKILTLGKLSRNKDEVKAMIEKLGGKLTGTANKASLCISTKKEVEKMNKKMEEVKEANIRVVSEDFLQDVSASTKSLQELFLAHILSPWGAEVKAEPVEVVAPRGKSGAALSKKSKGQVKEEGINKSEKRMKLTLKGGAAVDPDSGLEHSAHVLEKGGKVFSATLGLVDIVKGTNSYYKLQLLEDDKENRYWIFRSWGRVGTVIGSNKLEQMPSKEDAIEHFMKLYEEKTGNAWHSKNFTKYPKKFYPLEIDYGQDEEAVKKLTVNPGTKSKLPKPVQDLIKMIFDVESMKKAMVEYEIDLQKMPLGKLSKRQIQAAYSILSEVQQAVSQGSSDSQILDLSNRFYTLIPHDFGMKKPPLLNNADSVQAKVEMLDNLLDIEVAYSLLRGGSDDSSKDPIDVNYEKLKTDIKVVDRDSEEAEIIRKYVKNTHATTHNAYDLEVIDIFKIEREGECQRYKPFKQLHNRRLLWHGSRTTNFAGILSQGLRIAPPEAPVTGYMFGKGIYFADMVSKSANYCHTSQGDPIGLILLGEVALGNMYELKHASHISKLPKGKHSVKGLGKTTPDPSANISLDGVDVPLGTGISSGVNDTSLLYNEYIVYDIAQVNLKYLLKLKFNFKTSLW
Data set [4] concerns the target T1, Bromodomain-containing protein 4. The experiment in a line: Inhibition of BRD4 (unknown origin).
Data set [5] shares this target. In words: Ratio of IC50 for RVX-208 to IC50 for test compound for BRD4 (unknown origin).
Data set [6] addresses T2, Poly [ADP-ribose] polymerase 1. The experiment in a line: Inhibition of PARP1 (unknown origin).
The target of data set [7] is T1, Bromodomain-containing protein 4. The experiment in a line: Inhibition of BRD4 (unknown origin) relative to control. The conditions noted are these: concentration not given here.
In data set [8] the target is T3, Bromodomain-containing protein 1 (Homo sapiens, UniProt O95696).
T3 sequence (O95696 whole entry): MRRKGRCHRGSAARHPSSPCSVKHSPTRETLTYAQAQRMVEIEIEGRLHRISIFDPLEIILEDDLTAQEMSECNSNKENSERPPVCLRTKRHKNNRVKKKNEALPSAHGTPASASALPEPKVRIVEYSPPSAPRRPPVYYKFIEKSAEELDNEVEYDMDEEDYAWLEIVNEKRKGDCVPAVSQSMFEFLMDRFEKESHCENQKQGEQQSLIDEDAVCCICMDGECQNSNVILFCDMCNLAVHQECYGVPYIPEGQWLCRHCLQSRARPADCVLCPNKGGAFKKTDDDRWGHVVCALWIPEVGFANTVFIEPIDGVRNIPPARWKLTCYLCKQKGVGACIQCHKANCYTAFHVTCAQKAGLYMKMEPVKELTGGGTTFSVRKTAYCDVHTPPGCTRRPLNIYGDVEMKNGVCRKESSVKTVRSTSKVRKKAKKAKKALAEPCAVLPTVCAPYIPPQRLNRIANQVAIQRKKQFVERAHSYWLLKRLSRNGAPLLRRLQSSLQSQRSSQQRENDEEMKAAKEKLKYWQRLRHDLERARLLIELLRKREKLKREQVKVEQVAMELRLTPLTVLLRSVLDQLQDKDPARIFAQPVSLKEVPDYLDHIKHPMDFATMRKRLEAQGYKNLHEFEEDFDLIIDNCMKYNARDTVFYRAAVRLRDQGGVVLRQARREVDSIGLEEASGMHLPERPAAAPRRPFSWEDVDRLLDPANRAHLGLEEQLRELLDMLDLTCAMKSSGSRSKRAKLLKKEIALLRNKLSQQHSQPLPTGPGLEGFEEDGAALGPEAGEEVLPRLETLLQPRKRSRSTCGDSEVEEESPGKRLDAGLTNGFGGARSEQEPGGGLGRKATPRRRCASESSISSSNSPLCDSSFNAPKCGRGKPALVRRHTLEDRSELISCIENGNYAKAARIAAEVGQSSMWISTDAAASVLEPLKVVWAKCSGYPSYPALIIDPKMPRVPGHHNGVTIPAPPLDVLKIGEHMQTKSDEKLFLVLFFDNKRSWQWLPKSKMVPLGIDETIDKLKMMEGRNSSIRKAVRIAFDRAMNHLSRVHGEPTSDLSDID
The experiment in a line: Inhibition of BRD1 (unknown origin).

The target of data set [9] is Bromodomain-containing protein 2 (Homo sapiens, UniProt P25440). The experiment in a line: Inhibition of BRD2 (unknown origin).
Chain of Bromodomain-containing protein 2 (P25440 whole entry): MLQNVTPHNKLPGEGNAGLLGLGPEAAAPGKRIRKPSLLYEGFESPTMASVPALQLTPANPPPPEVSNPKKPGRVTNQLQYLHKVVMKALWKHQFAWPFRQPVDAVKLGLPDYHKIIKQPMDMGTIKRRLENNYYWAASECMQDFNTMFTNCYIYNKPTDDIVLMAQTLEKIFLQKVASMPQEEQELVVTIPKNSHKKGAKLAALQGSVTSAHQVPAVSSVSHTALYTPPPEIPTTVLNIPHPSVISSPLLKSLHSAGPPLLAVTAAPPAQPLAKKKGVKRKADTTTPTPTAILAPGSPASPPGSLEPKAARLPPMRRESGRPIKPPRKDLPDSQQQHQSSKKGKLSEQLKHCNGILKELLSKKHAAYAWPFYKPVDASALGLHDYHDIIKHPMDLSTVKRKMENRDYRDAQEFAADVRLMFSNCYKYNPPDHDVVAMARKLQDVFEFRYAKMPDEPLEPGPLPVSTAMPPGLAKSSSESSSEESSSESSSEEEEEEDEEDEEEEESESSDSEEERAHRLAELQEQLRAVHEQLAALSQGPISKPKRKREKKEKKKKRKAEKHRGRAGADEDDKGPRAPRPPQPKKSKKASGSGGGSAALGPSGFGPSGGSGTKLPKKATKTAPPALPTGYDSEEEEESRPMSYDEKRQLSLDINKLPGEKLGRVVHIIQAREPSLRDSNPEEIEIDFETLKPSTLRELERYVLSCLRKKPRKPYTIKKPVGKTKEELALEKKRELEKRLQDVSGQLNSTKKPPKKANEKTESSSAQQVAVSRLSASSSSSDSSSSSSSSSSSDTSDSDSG
For data set [10], the target named is T2, Poly [ADP-ribose] polymerase 1. In words: Inhibition of PARP1 (unknown origin) relative to control. The conditions noted are these: concentration not given here.
Data set [11] in a line: Half life in Sprague-Dawley rat plasma at 10 mg/kg, po. The class given is ADME, organism-based. To be noted: in vivo.
Data set [12] is described as follows: AUC (0 to infinity) in Sprague-Dawley rat plasma at 10 mg/kg, po. Further details: time infinity, dose 10 mg/kg, route po. To be noted: in vivo. The format is ADME, organism-based.
Data set [13] in a line: Cmax in Sprague-Dawley rat plasma at 10 mg/kg, po. The class given is ADME, organism-based. Further details: dose 10 mg/kg, route po. To be noted: in vivo.
The nature of data set [14]: Tmax in Sprague-Dawley rat plasma at 10 mg/kg, po. The format is ADME, organism-based. To be noted: in vivo.
A short description of data set [15]: MRT in Sprague-Dawley rat plasma at 10 mg/kg, po. The format is ADME, organism-based.
For data set [16], the target named is Dihydroorotate dehydrogenase (quinone), mitochondrial (Homo sapiens, UniProt Q02127). The experiment in a line: Inhibition of DHODH (unknown origin).
Chain of Dihydroorotate dehydrogenase (quinone), mitochondrial (Q02127 whole entry): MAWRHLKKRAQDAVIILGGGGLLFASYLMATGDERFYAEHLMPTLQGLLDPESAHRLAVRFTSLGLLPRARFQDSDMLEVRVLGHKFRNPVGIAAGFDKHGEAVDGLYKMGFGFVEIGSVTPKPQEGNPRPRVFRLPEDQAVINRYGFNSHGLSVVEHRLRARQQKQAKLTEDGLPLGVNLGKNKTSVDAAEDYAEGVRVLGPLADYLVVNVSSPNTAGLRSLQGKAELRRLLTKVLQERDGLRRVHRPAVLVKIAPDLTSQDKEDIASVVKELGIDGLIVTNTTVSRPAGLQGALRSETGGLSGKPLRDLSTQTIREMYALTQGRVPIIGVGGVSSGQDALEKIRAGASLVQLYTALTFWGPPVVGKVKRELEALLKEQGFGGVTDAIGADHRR
For data set [17], the target named is T2, Poly [ADP-ribose] polymerase 1. In words: Inhibition of PARP1 (unknown origin) incubated for 60 mins by microplate assay kit method.
Data set [18] concerns the target Poly [ADP-ribose] polymerase 2 (Homo sapiens, UniProt Q9UGN5). In words: Inhibition of PARP2 (unknown origin) incubated for 60 mins by microplate assay kit method.
The nature of data set [19]: Inhibition of porcine brain microtubule polymerization incubated for 105 mins by fluorescent based assay. Further details: species or system Sus scrofa.
Data set [20] concerns the target Rho-associated protein kinase 1 (Homo sapiens, UniProt Q13464). In words: Inhibition of ROCK1 (unknown origin).
Data set [21] deals with Rho-associated protein kinase 2 (Homo sapiens, UniProt O75116). In words: Inhibition of ROCK2 (unknown origin).
Data set [22] is described as follows: Ratio of olaparib IC50 to test compound IC50 for antiproliferative against BRCA proficient human MCF7 cells. The format is functional.
A short description of data set [23]: Ratio of olaparib IC50 to test compound IC50 for antiproliferative against BRCA deficient human HCC1937 cells. The class given is functional.

Chain of Poly [ADP-ribose] polymerase 2 (Q9UGN5 whole entry): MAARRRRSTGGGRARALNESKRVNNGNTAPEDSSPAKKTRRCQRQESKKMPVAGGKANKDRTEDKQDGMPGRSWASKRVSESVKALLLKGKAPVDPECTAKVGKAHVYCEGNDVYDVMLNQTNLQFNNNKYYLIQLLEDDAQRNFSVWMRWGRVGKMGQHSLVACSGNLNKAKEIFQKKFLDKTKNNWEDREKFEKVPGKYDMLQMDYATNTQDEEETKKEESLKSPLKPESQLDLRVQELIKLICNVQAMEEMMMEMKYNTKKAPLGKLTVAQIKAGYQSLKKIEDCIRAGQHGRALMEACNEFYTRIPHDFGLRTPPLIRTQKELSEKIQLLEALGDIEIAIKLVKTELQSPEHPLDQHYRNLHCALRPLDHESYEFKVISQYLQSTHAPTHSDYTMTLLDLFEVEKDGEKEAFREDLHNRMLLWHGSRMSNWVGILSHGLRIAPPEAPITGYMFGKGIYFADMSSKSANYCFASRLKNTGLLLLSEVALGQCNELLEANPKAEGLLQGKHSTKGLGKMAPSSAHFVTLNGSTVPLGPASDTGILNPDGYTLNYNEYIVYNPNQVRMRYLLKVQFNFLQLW
Chain of Rho-associated protein kinase 1 (Q13464 whole entry): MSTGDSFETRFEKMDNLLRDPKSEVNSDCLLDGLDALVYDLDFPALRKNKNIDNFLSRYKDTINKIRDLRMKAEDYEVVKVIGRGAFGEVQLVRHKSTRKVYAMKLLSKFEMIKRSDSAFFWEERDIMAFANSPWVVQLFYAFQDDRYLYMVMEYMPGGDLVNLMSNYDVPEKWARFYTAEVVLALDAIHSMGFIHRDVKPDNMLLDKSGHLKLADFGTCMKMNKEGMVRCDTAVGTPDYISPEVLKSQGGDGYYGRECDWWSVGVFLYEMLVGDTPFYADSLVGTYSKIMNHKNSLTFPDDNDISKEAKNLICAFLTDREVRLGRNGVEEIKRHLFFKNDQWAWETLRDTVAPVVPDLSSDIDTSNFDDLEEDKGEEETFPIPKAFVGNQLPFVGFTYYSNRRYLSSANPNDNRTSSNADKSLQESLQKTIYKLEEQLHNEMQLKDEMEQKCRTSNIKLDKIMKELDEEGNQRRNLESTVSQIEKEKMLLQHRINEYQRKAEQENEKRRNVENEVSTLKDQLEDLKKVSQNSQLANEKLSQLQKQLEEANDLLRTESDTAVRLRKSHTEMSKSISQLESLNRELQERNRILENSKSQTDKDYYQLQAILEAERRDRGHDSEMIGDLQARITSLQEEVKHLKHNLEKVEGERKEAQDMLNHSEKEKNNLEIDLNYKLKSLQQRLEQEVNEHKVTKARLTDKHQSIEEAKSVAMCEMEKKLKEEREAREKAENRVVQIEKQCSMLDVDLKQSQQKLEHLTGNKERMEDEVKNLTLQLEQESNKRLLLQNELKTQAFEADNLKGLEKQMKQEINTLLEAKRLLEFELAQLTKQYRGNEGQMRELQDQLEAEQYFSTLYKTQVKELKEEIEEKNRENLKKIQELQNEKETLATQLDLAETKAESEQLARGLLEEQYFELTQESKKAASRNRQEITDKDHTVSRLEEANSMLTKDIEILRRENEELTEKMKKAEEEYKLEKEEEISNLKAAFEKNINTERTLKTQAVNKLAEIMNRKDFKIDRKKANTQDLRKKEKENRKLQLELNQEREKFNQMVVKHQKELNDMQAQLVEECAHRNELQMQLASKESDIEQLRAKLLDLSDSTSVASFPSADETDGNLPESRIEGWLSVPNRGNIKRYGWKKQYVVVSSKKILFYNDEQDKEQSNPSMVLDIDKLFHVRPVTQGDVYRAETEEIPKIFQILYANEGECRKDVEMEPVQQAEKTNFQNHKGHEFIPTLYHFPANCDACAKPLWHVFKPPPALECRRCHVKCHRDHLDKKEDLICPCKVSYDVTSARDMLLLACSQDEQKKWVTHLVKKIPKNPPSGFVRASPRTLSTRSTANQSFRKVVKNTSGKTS

Broadly, the IC50 is the midpoint of a concentration-inhibition curve. `NC(=O)c1cccc2[nH]c(-c3ccc(-c4cncc(CN5CCCC5)c4)cc3)nc12`: in data set [1], the IC50 was 61 nM.

`CC(=O)Nc1cccc(-c2ccc(-c3nc4c(C(N)=O)cccc4[nH]3)cc2)c1`: in data set [1], 460 nM corresponded to half-maximal inhibition (IC50).

Consider `O=C(c1cc(Cc2n[nH]c(=O)c3ccccc23)ccc1F)N1CCN(C(=O)C2CC2)CC1` [OLAPARIB], for which the IC50 was 232000 nM in the data set on MCF7 and 83100 nM in the data set with HCC1937.

In general, inhibition refers to the drop in the measured response relative to a control, in per cent. A higher inhibition goes with a strong effect. As for `COc1cc(OC)c2c(=O)[nH]c(-c3ccc([C@@H]4CCCNC4)cc3)nc2c1`, the inhibition in data set [2] was 30%; in [3], 65%.

Broadly, the AUC is the area under the concentration-time curve, a measure of exposure. Higher therefore signals high exposure. Usually Cmax stands for the highest concentration seen after dosing. One may read the Tmax as the time at which the peak concentration occurs. Broadly, the MRT is a mean duration of stay, worked out from the concentration-time curve. Consider `COc1cc(OC)c2c(=O)[nH]c(-c3ccc(OCCOc4ccccc4C(N)=O)cc3)nc2c1`, for which the IC50 in data set [4] came to 400 nM; in data set [6] it was 4600 nM; in data set [8], 440 nM; in data set [9] it was 379 nM. Further, the Ratio IC50 in data set [5] turned out to be 30. Also, the results for the inhibition in [7] and in data set [10] were 92% and 88%, respectively. This molecule also registered a t1/2 in [11] of 3.1 h. In addition, the AUC in [12] was 144.7 ng·h/mL. In [13], this molecule came in with a Cmax of 26.65 ng/mL. Besides, in data set [14], the time to peak (Tmax) was found to be 1.58 h. Besides, the MRT in data set [15] came out at 5.35 h.

`O=C(O)c1cc(F)cc2[nH]c(-c3ccc(-c4ccc(NC(=O)C5CC5)cc4F)cc3F)nc12`: the results for the IC50 in data set [1] and in data set [16] were 84 nM and 48000 nM, respectively.

With `CCOC(=O)Nc1nc2ccc(-c3cc(Cc4n[nH]c(=O)c5ccccc45)ccc3F)cc2[nH]1`, the figures for the IC50 in data set [17], in [18] and in [19] were 5 nM, 50 nM and 990 nM, respectively.

On to `CC(=O)Nc1ccc(COc2ccc(-c3ccc(-c4nc5c(C(=O)O)cc(C)cc5[nH]4)cc3)cc2)cc1`, for which the concentration for half-maximal inhibition (IC50) in data set [1] turned out to be 44000 nM.

With `O=C(COc1cccc2c(=O)[nH]ccc12)c1ccccc1`, the values for the half-inhibitory concentration (IC50) in [20] and in data set [21] were 9300 nM and 20500 nM, respectively.

In the case of `O=C1/C(=C/c2ccncc2)CN(C(=O)c2cc(Cc3n[nH]c(=O)c4ccccc34)ccc2F)C/C1=C\c1ccncc1`, the results for the “Ratio IC50” value in [22] and in data set [23] were 200 and 40, respectively.
